Experimental data as given in paper PMC11111895, “Identification of a dCache-type chemoreceptor in Campylobacter jejuni that specifically mediates chemotaxis towards methyl pyruvate” (Frontiers in Microbiology, 2024).
Like-named read-outs stand apart in the source and are kept apart here.

Columns and labels:
Tlp11-LBD Y291A = assay: MST of Tlp11-LBD mutant Y291A; type: binding, C. jejuni ATCC 33560; details: max ligand 2.5 mM
Method: (§1) The His-tag dye (MO-L018 RED-tris-NTA, NanoTemper, Germany) was adjusted to a final concentration of 25 nM and used to label the purified protein with a His-tag. The compound was diluted to a series of concentrations in phosphate-buffered saline ([Duan et al., 2023]) with 0.05% Tween 20 (PBS-T) buffer and mixed in a ratio of 1:1 with protein. The mixtures were loaded into capillaries (Monolith™ Series capillaries, NanoTemper) by means of capillary action. Thermophoresis was measured using a Monolith™ NT.115 (NanoTemper) instrument, with 40% excitation and 40% MST power configuration. The time-traces of changes in fluorescence, which reflected the thermophoretic movement of labeled protein affected by different concentrations of compound were recorded, and the dose–response curves were fitted with the ‘temperature jump and thermophoresis’ mode. Data analysis was performed using MO. Affinity Analysis version 2.3 (NanoTemper) and Prism version 8.0.2 (GraphPad Software, United States).
(§2) In order to confirm the contribution of L264, N268, I276, Y291, V318, and T320 to the binding to methyl pyruvate, we generated Tlp11-LBD proteins with an alanine point mutation at individual residues, to obtain the mutant proteins L264A, N268A, I276A, Y291A, V318A, and T320A, and then analyzed the binding affinities of methyl pyruvate to these mutants using MST. […]

Tlp11-LBD L264A = assay: MST of Tlp11-LBD mutant L264A; type: binding, C. jejuni ATCC 33560; details: max ligand 2.5 mM
Method: as §1, §2

Tlp11-LBD I276A = assay: MST of Tlp11-LBD mutant I276A; type: binding, C. jejuni ATCC 33560; details: max ligand 2.5 mM
Method: as §1, §2

Tlp11-LBD = assay: Microscale thermophoresis (MST) of Tlp11-LBD; type: binding, C. jejuni ATCC 33560
Method: as §1
MST quantifies interaction affinities by detecting the direct movement of fluorescent molecules along temperature gradients in capillaries. Ligand binding changes the thermophoretic movement of proteins, which can be used to derive Kds, by sequentially scanning capillaries with different ligand concentrations. MST has been applied to the study of weak binding systems and validated to provide reliable results ([Linke et al., 2016]; [Gao et al., 2021]). […] We also tested the binding abilities of methyl pyruvate analogues to Tlp11-LBD using MST (Supplementary Table S3).

Tlp11-LBD N268A = assay: MST of Tlp11-LBD mutant N268A; type: binding, C. jejuni ATCC 33560; details: max ligand 2.5 mM
Method: as §1, §2

[1] = molecular target: Tlp11-LBD homologue (WP_199770133.1, residues 31-330); assay: MST of Tlp11-LBD homologue; type: binding, Helicobacter mesocricetorum; details: H. mesocricetorum LBD
Method: as §1
(§3) To evaluate whether these potential Tlp11-LBD homologues could bind to methyl pyruvate, we conducted a structural analysis of the LBDs of six chemoreceptors from C. coli, H. equorum, H. himalayensis, H. mesocricetorum, H. ganmani, and C. upsaliensis using Alphafold 2. […]

[2] = molecular target: Tlp11-LBD homologue (WP_201459806.1, residues 32-332); assay: MST of Tlp11-LBD homologue; type: binding, Campylobacter coli; details: C. coli LBD
Method: as §1, §3

COC(=O)C(C)=O [methyl pyruvate, Methyl pyruvate]
Kd (binding curve fit) (Tlp11-LBD Y291A): unable to obtain fitted Kd values | Kd (binding curve fit) (Tlp11-LBD L264A): unable to obtain fitted Kd values | Kd (binding curve fit) (Tlp11-LBD I276A): unable to obtain fitted Kd values | Kd (Tlp11-LBD; 250 nM protein, methyl pyruvate at pH 7.0, read-out: Kd of Tlp11-LBD binding): 688 ± 140 µM | Kd (Tlp11-LBD; Tlp11-LBD saturated with 5 mM quinoline, read-out: Kd of Tlp11-LBD interacting with methyl pyruvate): 3900 ± 1100 µM | Kd (Tlp11-LBD; Tlp11-LBD saturated with 5 mM toluene, read-out: Kd of Tlp11-LBD interacting with methyl pyruvate): 18000 ± 3000 µM | Kd (binding curve fit) (Tlp11-LBD N268A): unable to obtain fitted Kd values | Kd [1]: 1200 ± 400 µM | Kd [2]: 1400 ± 500 µM
